Results taken from US8680052B1, “Methods of treating, reducing the incidence of, and/or preventing ischemic events” (The Medicines Company, priority 2013, dated 2014).
Each block holds one molecule with its values, some of them ahead of it.

Tests used:
P2Y12 receptor [1] = target: T1, P2Y12 receptor (Homo sapiens, UniProt Q9H244); test: Example 2 substudy: platelet function by VerifyNow P2Y12 Assay; assay type: in vivo
T1 construct: from tissue; host or cells: platelets in whole blood of patients
Protocol: Platelet function parameters were measured using the VerifyNow® P2Y12 Assay (Accumetrics, San Diego, Calif.). Samples were taken before study drug administration, at approximately 2 hours (during cangrelor/placebo infusion), and 10 hours or next day following randomization.

P2Y12 receptor [2] = target: T1, P2Y12 receptor; test: Example 4: VerifyNow P2Y12 assay, platelet reactivity in PRU; assay type: in vivo
Protocol: The study involved 12 patients who met the criteria of being 18-75 years of age, having coronary artery disease (CAD) documented by a previous MI or coronary revascularization, and taking 81 mg of aspirin daily. […] Use of non-steroidal anti-inflammatory agents was discouraged during study participation but not prohibited.
Each patient was administered a 30 μg/kg bolus of cangrelor followed immediately by a 2 hr infusion at a rate of 4.0 μg/kg/min. A loading dose of ticagrelor (180 mg) was given after 0.5 hr or 1.25 hr (n=6 for each). Blood for pharmacodynamic platelet function studies was taken after 0.5 or 1.25 hr (corresponding to the time of ticagrelor load, n=6 for each), and then at 1.75, 2, 2.25, 2.5, 2.75, 3, 4, and 5.25 hr. Patients were assigned randomly to receive either 6 (n=6) or 7 (n=6) doses of ticagrelor to be taken every 12 hours following the discontinuation of the infusion of cangrelor. On study day 5, each patient was administered a 30 μg/kg bolus of cangrelor followed immediately by a 2 hr infusion at a rate of 4.0 μg/kg/min. Blood for pharmacodynamic assessment was taken after 1 and 2 hr. Adverse events were queried throughout study participation that ended with a telephone interview performed on study day 10-12.
Pharmacodynamic assessment included light transmission aggregometry (LTA), VerifyNow® P2Y12 assay, vasodilator-stimulated phosphoprotein (VASP) index, and platelet activation measured with the use of flow cytometry. Assessment of LTA, VerifyNow®, and platelet activation with the use of flow cytometry was performed within 30 min of blood being taken. In the case of flow cytometry, samples were processed to fixation and then batched for analysis. For VASP, index samples were batched and processed as recommended by the vendor within 2 h of blood being taken. This approach limited the time from fixation of VASP index to flow analysis to less than 1 h.
LTA induced by 5 μM and 20 μM adenosine diphosphate (ADP) was quantified ex vivo (i.e. in non-adjusted platelet rich plasma). Platelet-poor plasma was set as 100% aggregation, and both maximal (peak) and terminal (at 300 s) aggregation were measured with a PAP4 aggregometer (BioData, Horsham, Pa.). VerifyNow® P2Y12 assay (Accumetrics Inc, San Diego, Calif.) that measures the effects of drugs on the P2Y12 receptor by activating platelets with prostaglandin El in addition to ADP was used in accordance with the instructions provided by the manufacturer. Platelet reactivity was expressed in P2Y12 reaction units (PRU). Activation of platelets was identified with the use of flow cytometry as previously described.^17. And to determine the VASP index, a commercially available kit (Diagnostica Stago, Inc, Parsippany NJ) was used. ^17 Schneider D J, Sobel B E. Streamlining the design of promising clinical trials: in-vitro testing of antithrombotic regimens and multiple agonists of platelet activation. Coron Artery Dis. 2009; 20:175-8.

[3] = reference 5.25 h, Ticagrelor at 0.5 h
[4] = reference 5.25 h, Ticagrelor at 1.25 h

T1 sequence (Q9H244 whole entry): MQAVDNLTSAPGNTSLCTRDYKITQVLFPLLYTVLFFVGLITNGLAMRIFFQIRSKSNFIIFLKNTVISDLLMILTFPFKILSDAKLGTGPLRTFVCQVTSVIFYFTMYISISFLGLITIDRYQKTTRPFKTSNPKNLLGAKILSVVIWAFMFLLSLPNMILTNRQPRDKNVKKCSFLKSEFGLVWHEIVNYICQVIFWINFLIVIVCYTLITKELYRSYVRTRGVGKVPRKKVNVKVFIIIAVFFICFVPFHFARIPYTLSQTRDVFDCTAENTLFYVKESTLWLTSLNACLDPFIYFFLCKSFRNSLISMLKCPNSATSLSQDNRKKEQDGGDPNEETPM

Compound: COC(=O)[C@H](c1ccccc1Cl)N1CCc2sccc2C1 [Clopidogrel, clopidogrel, reference compound]
median PRU (VerifyNow P2Y12 assay) (P2Y12 receptor [1]; 12-24 hours after discontinuation of the cangrelor infusion): 206 PRU
median PRU (VerifyNow P2Y12 assay) (P2Y12 receptor [1]; during the study drug infusion (approx. 2 hours)): 277 PRU

VerifyNow IPR (P2Y12 receptor [2]; 2.25 h, All): 89 ± 11
VerifyNow PRU (P2Y12 receptor [2]; 2.25 h, All): 28 ± 28 PRU
VerifyNow IPR (P2Y12 receptor [2]; 2.25 h, Ticagrelor at 0.5 h): 90 ± 10
VerifyNow PRU (P2Y12 receptor [2]; 2.25 h, Ticagrelor at 0.5 h): 28 ± 27 PRU
VerifyNow IPR (P2Y12 receptor [2]; 2.25 h, Ticagrelor at 1.25 h): 89 ± 14
VerifyNow PRU (P2Y12 receptor [2]; 2.25 h, Ticagrelor at 1.25 h): 28 ± 32 PRU
VerifyNow IPR (P2Y12 receptor [2]; 2.5 h, All): 70 ± 31
VerifyNow PRU (P2Y12 receptor [2]; 2.5 h, All): 76 ± 79 PRU
VerifyNow IPR (P2Y12 receptor [2]; 2.5 h, Ticagrelor at 0.5 h): 78 ± 24
VerifyNow PRU (P2Y12 receptor [2]; 2.5 h, Ticagrelor at 0.5 h): 60 ± 64 PRU
VerifyNow IPR (P2Y12 receptor [2]; 2.5 h, Ticagrelor at 1.25 h): 62 ± 37
VerifyNow PRU (P2Y12 receptor [2]; 2.5 h, Ticagrelor at 1.25 h): 93 ± 94 PRU
VerifyNow IPR (P2Y12 receptor [2]; 2.75 h, All): 83 ± 21
VerifyNow PRU (P2Y12 receptor [2]; 2.75 h, All): 44 ± 50 PRU
VerifyNow IPR (P2Y12 receptor [2]; 2.75 h, Ticagrelor at 0.5 h): 84 ± 15
VerifyNow PRU (P2Y12 receptor [2]; 2.75 h, Ticagrelor at 0.5 h): 44 ± 40 PRU
VerifyNow IPR (P2Y12 receptor [2]; 2.75 h, Ticagrelor at 1.25 h): 82 ± 27
VerifyNow PRU (P2Y12 receptor [2]; 2.75 h, Ticagrelor at 1.25 h): 44 ± 62 PRU
VerifyNow IPR (P2Y12 receptor [2]; 3 h, All): 88 ± 19
VerifyNow PRU (P2Y12 receptor [2]; 3 h, All): 31 ± 46 PRU
VerifyNow IPR (P2Y12 receptor [2]; 3 h, Ticagrelor at 0.5 h): 87 ± 16
VerifyNow PRU (P2Y12 receptor [2]; 3 h, Ticagrelor at 0.5 h): 35 ± 42 PRU
VerifyNow IPR (P2Y12 receptor [2]; 3 h, Ticagrelor at 1.25 h): 88 ± 23
VerifyNow PRU (P2Y12 receptor [2]; 3 h, Ticagrelor at 1.25 h): 28 ± 53 PRU
VerifyNow IPR (P2Y12 receptor [2]; 4 h, All): 96 ± 4
VerifyNow PRU (P2Y12 receptor [2]; 4 h, All): 10 ± 10 PRU
VerifyNow IPR (P2Y12 receptor [2]; 4 h, Ticagrelor at 0.5 h): 97 ± 2
VerifyNow PRU (P2Y12 receptor [2]; 4 h, Ticagrelor at 0.5 h): 7.3 ± 4.4 PRU
VerifyNow IPR (P2Y12 receptor [2]; 4 h, Ticagrelor at 1.25 h): 95 ± 5
VerifyNow PRU (P2Y12 receptor [2]; 4 h, Ticagrelor at 1.25 h): 14 ± 14 PRU
VerifyNow IPR (P2Y12 receptor [2]; reference 5.25 h, All): 96 ± 4
VerifyNow PRU (P2Y12 receptor [2]; reference 5.25 h, All): 9.5 ± 9.7 PRU
VerifyNow IPR (P2Y12 receptor [2]; [3]): 97 ± 2
VerifyNow PRU (P2Y12 receptor [2]; [3]): 7.7 ± 5.3 PRU
VerifyNow IPR (P2Y12 receptor [2]; [4]): 96 ± 4
VerifyNow PRU (P2Y12 receptor [2]; [4]): 11 ± 7 PRU
Compound: CCCSc1nc(N[C@@H]2C[C@H]2c2ccc(F)c(F)c2)c2nnn([C@@H]3C[C@H](OCCO)[C@@H](O)[C@H]3O)c2n1 [ticagrelor]
